Molecular target: Somatostatin receptor type 2 (Rattus norvegicus) (UniProt P30680)
Test: Binding affinity for SSTR2 receptors of rat cortex membranes was determined by using [125I][Tyr3]-octreotide radioligand

Chain of Somatostatin receptor type 2 (Rattus norvegicus) (P30680 whole entry, looked up): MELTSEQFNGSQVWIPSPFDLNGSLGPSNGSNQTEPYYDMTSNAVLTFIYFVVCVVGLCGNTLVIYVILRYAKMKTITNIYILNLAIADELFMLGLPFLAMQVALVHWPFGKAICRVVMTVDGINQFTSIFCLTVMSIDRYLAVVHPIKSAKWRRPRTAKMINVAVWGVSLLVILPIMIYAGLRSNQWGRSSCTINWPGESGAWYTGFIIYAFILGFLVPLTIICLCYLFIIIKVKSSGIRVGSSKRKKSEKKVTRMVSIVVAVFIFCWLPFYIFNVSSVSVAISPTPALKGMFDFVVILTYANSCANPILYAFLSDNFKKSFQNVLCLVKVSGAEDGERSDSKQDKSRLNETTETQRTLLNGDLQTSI

- Ki: 3.2 nM
Compound: C[C@@H](O)[C@@H]1NC(=O)[C@H](CCCCN)NC(=O)[C@@H](Cc2c[nH]c3ccccc23)NC(=O)[C@H](Cc2ccccc2)NC(=O)[C@@H](NC(=O)[C@@H](Cc2ccccc2)NC(=O)CN2CCN(CC(=O)O)CCN(CC(=O)O)CCN(CC(=O)O)CC2)CSSC[C@@H](C(=O)N[C@H](CO)[C@@H](C)O)NC1=O

Source: BindingDB's records for doi:10.1016/s0960-894x(98)00187-5 (Novartis Pharma, 1999)
